Experimental data reported in patent US7538103B2, “Compounds for the treatment of hepatitis C” (Bristol-Myers Squibb Company, priority 2007, dated 2009).
Read-outs that look alike come from different tables or passages of the source.

Assays:
[1] = target: T1, HCV NS5B (Hepatitis C virus genotype 1b, UniProt Q9WMX2); assay: Modified HCV NS5B RdRp enzyme assay (preincubation protocol); type: biochemical
T1 construct: The protein was expressed with an 18 amino acid C-terminal truncation to enhance the solubility; made in house; host or cells: E. coli BL21(DE3)
Description: HCV NS5B RdRp cloning, expression, and purification. The cDNA encoding the NS5B protein of HCV, genotype 1b, was cloned into the pET21a expression vector. The protein was expressed with an 18 amino acid C-terminal truncation to enhance the solubility. The E. coli competent cell line BL21(DE3) was used for expression of the protein. Cultures were grown at 37° C. for ˜4 hours until the cultures reached an optical density of 2.0 at 600 nm. The cultures were cooled to 20° C. and induced with 1 mM IPTG. Fresh ampicillin was added to a final concentration of 50 μg/ml and the cells were grown overnight at 20° C.
Cell pellets (3 L) were lysed for purification to yield 15-24 mgs of purified NS5B. The lysis buffer consisted of 20 mM Tris-HCl, pH 7.4, 500 mM NaCl, 0.5% triton X-100, 1 mM DTT, 1 mM EDTA, 20% glycerol, 0.5 mg/ml lysozyme, 10 mM MgCl2, 15 ug/ml deoxyribonuclease I, and Complete TM protease inhibitor tablets (Roche). After addition of the lysis buffer, frozen cell pellets were resuspended using a tissue homogenizer. To reduce the viscosity of the sample, aliquots of the lysate were sonicated on ice using a microtip attached to a Branson sonicator. The sonicated lysate was centrifuged at 100,000×g for 1 hr at 4° C. and filtered through a 0.2 μm filter unit (Corning).
The protein was purified using three sequential chromatography steps: Heparin sepharose CL-6B, polyU sepharose 4B, and Hitrap SP sepharose (Pharmacia). The chromatography buffers were identical to the lysis buffer but contained no lysozyme, deoxyribonuclease I, MgCl2 or protease inhibitor and the NaCl concentration of the buffer was adjusted according to the requirements for charging the protein onto the column. Each column was eluted with a NaCl gradient which varied in length from 5-50 column volumes depending on the column type. After the final chromatography step, the resulting purity of the enzyme is >90% based on SDS-PAGE analysis. The enzyme was aliquoted and stored at −80° C.
Standard HCV NS5B RdRp enzyme assay. HCV RdRp genotype 1b assays were run in a final volume of 60 μl in 96 well plates (Costar 3912). The assay buffer is composed of 20 mM Hepes, pH 7.5, 2.5 mM KCl, 2.5 mM MgCl2, 1 mM DTT, 1.6 U RNAse inhibitor (Promega N2515), 0.1 mg/ml BSA (Promega R3961), and 2% glycerol. All compounds were serially diluted (3-fold) in DMSO and diluted further in water such that the final concentration of DMSO in the assay was 2%. HCV RdRp genotype 1b enzyme was used at a final concentration of 28 nM. A polyA template was used at 6 nM, and a biotinylated oligo-dT12 primer was used at 180 nM final concentration. Template was obtained commercially (Amersham 27-4110). Biotinylated primer was prepared by Sigma Genosys. 3H-UTP was used at 0.6 μCi (0.29 μM total UTP). Reactions were initiated by the addition of enzyme, incubated at 30° C. for 60 min, and stopped by adding 25 μl of 50 mM EDTA containing SPA beads (4 μg/μl, Amersham RPNQ 0007). Plates were read on a Packard Top Count NXT after >1 hr incubation at room temperature.
Modified HCV NS5B RdRp enzyme assay. A modified enzyme assay was performed essentially as described for the standard enzyme assay except for the following: The biotinylated oligo dT12 primer was precaptured on streptavidin-coated SPA beads by mixing primer and beads in assay buffer and incubating at room temperature for one hour. Unbound primer was removed after centrifugation. The primer-bound beads were resuspended in 20 mM Hepes buffer, pH 7.5 and used in the assay at final concentrations of 20 nM primer and 0.67 μg/μl beads. Order of addition in the assay: enzyme (14 nM) was added to diluted compound followed by the addition of a mixture of template (0.2 nM), 3H-UTP (0.6 μCi, 0.29 μM), and primer-bound beads, to initiate the reaction; concentrations given are final. Reactions were allowed to proceed for 4 hours at 30° C.
IC50 values for compounds were determined using seven different [I]. […]

[2] = tested on: HCV replicon cells; assay: HCV replicon FRET assay; type: cell-based; details: Hepatitis C virus
Text: FRET Assay Preparation. To perform the HCV FRET screening assay, 96-well cell culture plates were used. The FRET peptide (Anaspec, Inc.) (Taliani et al., Anal. Biochem. 1996, 240, 60-67) contains a fluorescence donor, EDANS, near one end of the peptide and an acceptor, DABCYL, near the other end. The fluorescence of the peptide is quenched by […] resonance energy transfer (RET) between the donor and the acceptor, but as the NS3 protease cleaves the peptide the products are released from RET quenching and the fluorescence of the donor becomes apparent. The assay reagent was made as follows: 5X cell Luciferase cell culture lysis reagent from Promega (#E153A) diluted to 1× with dH2O, NaCl added to 150 mM final, the FRET peptide diluted to 20 μM final from a 2 mM stock.
To prepare plates, HCV replicon cells, with or without a Renilla luciferase reporter gene, were trypsinized and placed into each well of a 96-well plate with titrated test compounds added in columns 3 through 12; columns 1 and 2 contained a control compound (HCV protease inhibitor), and the bottom row contained cells without compound. The plates were then placed in a CO2 incubator at 37° C.
Assays. Subsequent to addition of the test compounds described above (FRET Assay Preparation), at various times the plate was removed and Alamar blue solution (Trek Diagnostics, #00-100) was added per well as a measure of cellular toxicity. After reading in a Cytoflour 4000 instrument (PE Biosystems), plates were rinsed with PBS and then used for FRET assay by the addition of 30 ul of the FRET peptide assay reagent described above (FRET Assay Preparation) per well. The plate was then placed into the Cytoflour 4000 instrument which had been set to 340 excite/490 emission, automatic mode for 20 cycles and the plate read in a kinetic mode. Typically, the signal to noise using an endpoint analysis after the reads was at least three-fold. Alternatively, after Alamar blue reading, plates were rinsed with PBS, 50 ul of DMEM (high glucose) without phenol red was added and plates were then used for luciferase assay using the Promega Dual-Glo Luciferase Assay System.
Compound analysis was determined by quantification of the relative HCV replicon inhibition and the relative cytotoxicity values. To calculate cytoxicity values, the average Alamar Blue fluorescence signals from the control wells were set as 100% non-toxic. The individual signals in each of the compound test wells were then divided by the average control signal and multiplied by 100% to determine […]. To calculate the HCV replicon inhibition values, an average background value was obtained from the two wells containing the highest amount of HCV protease inhibitor at the end of the assay period. These numbers were similar to those obtained from naïve Huh-7 cells.
The background numbers were then subtracted from the average signal obtained from the control wells and this number was used as 100% activity. The individual signals in each of the compound test wells were then divided by the averaged control values after background subtraction and multiplied by 100% to determine percent activity. EC50 values for a protease inhibitor titration were calculated as the concentration which caused a 50% reduction in FRET or luciferase activity. The two numbers generated for the compound plate, percent cytoxicity and percent activity were used to determine compounds of interest for further analysis.

[3] = determined using the preincubation protocol, read-out: IC50
[4] = determined using the FRET assay, read-out: EC50

T1 sequence (Q9WMX2 2420-2992): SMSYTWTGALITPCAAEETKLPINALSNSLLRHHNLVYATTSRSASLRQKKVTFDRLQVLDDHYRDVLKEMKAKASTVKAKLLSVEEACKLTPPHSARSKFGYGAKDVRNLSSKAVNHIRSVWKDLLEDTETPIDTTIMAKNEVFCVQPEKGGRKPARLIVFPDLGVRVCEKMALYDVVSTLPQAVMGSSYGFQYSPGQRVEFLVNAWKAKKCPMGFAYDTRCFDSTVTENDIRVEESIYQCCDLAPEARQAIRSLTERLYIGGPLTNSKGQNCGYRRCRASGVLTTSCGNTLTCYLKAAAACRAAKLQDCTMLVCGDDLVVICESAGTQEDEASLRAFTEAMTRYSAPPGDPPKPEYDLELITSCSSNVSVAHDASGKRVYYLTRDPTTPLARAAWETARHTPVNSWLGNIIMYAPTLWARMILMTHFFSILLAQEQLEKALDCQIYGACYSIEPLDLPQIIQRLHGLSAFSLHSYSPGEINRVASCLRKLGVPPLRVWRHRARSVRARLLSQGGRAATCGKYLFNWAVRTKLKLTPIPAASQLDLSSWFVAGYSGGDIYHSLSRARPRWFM

| SMILES | IC50 [1, 3] | EC50 [2, 4] | IC50 [1] | EC50 [2] |
| --- | --- | --- | --- | --- |
| COC(=O)CC12CC1c1cc(OC)ccc1-c1c(C3CCCCC3)c3ccc(C(=O)NS(=O)(=O)N(C)C)cc3n1C2 (centres unmarked) | 1 to 500 nM | > 120 nM |  |  |
| COc1ccc2c(c1)C1CC1(CC(=O)N1C3CCC1CN(C)C3)Cn1c-2c(C2CCCCC2)c2ccc(C(=O)NS(=O)(=O)N(C)C)cc21 (centres unmarked) |  |  | > 120 nM | 1 to 500 nM |
| COC(=O)CC12CC1c1cc(OC)ccc1-c1c(C3CCCCC3)c3ccc(C(=O)O)cc3n1C2 (centres unmarked) | 1 to 500 nM | 1 to 500 nM |  |  |
| COc1ccc2c(c1)C1CC1(CN1CCOCC1)Cn1c-2c(C2CCCCC2)c2ccc(C(=O)NS(=O)(=O)N(C)C)cc21 (centres unmarked) | 1 to 500 nM | 1 to 500 nM |  |  |
| COc1ccc2c(c1)C1CC1(CC(=O)N1C[C@@H](C)O[C@H](C)C1)Cn1c-2c(C2CCCCC2)c2ccc(C(=O)NS(=O)(=O)N(C)C)cc21 (some centres unmarked) | 1 to 500 nM | 1 to 500 nM |  |  |
| COc1ccc2c(c1)C1CC1(CO)Cn1c-2c(C2CCCCC2)c2ccc(C(=O)NS(=O)(=O)N(C)C)cc21 (centres unmarked) | 1 to 500 nM | 1 to 500 nM |  |  |
| COc1ccc2c(c1)C1CC1(COC(=O)N1CCOCC1)Cn1c-2c(C2CCCCC2)c2ccc(C(=O)NS(=O)(=O)N(C)C)cc21 (centres unmarked) | 1 to 500 nM | 1 to 500 nM |  |  |
| CCN(CC12CC1c1cc(OC)ccc1-c1c(C3CCCCC3)c3ccc(C(=O)NS(=O)(=O)N(C)C)cc3n1C2)C(C)=O (centres unmarked) | 1 to 500 nM | 1 to 500 nM |  |  |
| COc1ccc2c(c1)C1CC1(CC(=O)O)Cn1c-2c(C2CCCCC2)c2ccc(C(=O)NS(=O)(=O)N(C)C)cc21 (centres unmarked) | 1 to 500 nM | 500 to 1000 nM |  |  |
| COc1ccc2c(c1)C1CC1(CC(=O)N1CCOCC1)Cn1c-2c(C2CCCCC2)c2ccc(C(=O)NS(=O)(=O)N(C)C)cc21 (centres unmarked) | 1 to 500 nM | 1 to 500 nM |  |  |
